Experimental findings from patent publication US8785457B2 (Cellzome Limited, priority 2009, dated 2014) are described below.

SMILES strings stand for the structures. Where two headings read alike, the source gives them in different places.

One test deals with T1, mTOR (Homo sapiens, UniProt P42345).
T1 construct: endogenous in cells; host or cells: Jurkat, clone E6-1 (ATCC TIB-152) cell lysate
The test can be described thus: mTOR kinobeads assay (competitive binding in Jurkat cell lysate, immunodetection). The method in brief: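 IC50 derived from dose-response curves of mTOR captured on immobilized phenylmorpholin-chromen beads, detected by antibody dot blot with infrared fluorescence.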

The next test concerns the target T2, PI3 Kgamma (PI3 Kg) (Homo sapiens, UniProt P48736).
T2 construct: endogenous in cells; host or cells: cell lysate
As to the kind of experiment: kinobeads assay, PI3Kgamma. The test is classed as binding. The method in brief:
(§1)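 Read-out is multiplexed immunodetection of kinase eluted from phenylmorpholin-chromen ligand beads after their incubation in cell lysate with test compound at various concentrations. Reduced capture reflects competition, and per-kinase dose-response curves yield IC50.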

The target of another test is T3, PI3 Kbeta (PI3 Kb) (Homo sapiens, UniProt P42338).
T3 construct: endogenous in cells; host or cells: cell lysate
As to the kind of experiment: kinobeads assay, PI3Kbeta. In kind it is binding. The method in brief: as §1

The target of a further test is T4, PI3Kalpha (PI3Ka) (Homo sapiens, UniProt P42336).
T4 construct: endogenous in cells; host or cells: cell lysate
The test can be described thus: kinobeads assay, PI3Kalpha. In kind it is binding. The gist of the method: as §1

Setting [1] is: Further Kinobeads Data, read-out: mTor.
Setting [2] is: Further Kinobeads Data, read-out: PI3Kg.
[3] abbreviates: Further Kinobeads Data, read-out: PI3Kb.
Setting [4] is: kinobeads assay, Table 4, read-out: Inhibition values (IC50) mTor.
Where [5] appears, read: kinobeads assay, Table 6, read-out: Inhibition values (IC50) mTOR.
[6] abbreviates: kinobeads assay, Table 6, read-out: Inhibition values (IC50) PI3Kg.
Setting [7] is: kinobeads assay, Table 6, read-out: Inhibition values (IC50) PI3Kb.
[8] abbreviates: kinobeads assay, Table 6, read-out: Inhibition values (IC50) PI3Ka.

T4 sequence (P42336 whole entry): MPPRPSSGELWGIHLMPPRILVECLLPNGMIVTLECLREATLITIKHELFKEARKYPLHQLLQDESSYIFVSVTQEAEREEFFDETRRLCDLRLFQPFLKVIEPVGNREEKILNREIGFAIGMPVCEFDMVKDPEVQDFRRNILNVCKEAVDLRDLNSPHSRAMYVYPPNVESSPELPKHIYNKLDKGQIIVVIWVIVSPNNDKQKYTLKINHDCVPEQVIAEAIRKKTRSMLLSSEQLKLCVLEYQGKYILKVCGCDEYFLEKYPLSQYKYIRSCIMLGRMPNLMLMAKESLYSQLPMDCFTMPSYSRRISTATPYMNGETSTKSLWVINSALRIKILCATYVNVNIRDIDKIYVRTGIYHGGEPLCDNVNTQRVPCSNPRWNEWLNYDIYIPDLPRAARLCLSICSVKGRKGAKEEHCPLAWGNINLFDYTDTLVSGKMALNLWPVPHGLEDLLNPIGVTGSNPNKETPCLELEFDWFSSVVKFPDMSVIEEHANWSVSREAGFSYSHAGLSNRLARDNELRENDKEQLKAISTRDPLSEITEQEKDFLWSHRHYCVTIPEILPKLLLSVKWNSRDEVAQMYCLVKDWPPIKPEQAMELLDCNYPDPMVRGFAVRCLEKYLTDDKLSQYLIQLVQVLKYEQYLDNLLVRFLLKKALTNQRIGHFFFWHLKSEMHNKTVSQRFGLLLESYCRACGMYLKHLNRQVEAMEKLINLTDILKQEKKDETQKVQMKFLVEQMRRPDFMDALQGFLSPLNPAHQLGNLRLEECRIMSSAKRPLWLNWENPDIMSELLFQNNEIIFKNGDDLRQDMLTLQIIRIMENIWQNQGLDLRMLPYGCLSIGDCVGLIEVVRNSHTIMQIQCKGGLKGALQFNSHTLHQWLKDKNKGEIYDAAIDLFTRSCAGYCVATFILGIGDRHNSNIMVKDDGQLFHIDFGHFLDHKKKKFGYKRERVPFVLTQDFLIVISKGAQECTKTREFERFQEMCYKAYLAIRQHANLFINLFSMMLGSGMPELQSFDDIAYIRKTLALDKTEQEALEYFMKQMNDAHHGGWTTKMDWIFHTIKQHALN
T4 sequence (P27986 whole entry partner): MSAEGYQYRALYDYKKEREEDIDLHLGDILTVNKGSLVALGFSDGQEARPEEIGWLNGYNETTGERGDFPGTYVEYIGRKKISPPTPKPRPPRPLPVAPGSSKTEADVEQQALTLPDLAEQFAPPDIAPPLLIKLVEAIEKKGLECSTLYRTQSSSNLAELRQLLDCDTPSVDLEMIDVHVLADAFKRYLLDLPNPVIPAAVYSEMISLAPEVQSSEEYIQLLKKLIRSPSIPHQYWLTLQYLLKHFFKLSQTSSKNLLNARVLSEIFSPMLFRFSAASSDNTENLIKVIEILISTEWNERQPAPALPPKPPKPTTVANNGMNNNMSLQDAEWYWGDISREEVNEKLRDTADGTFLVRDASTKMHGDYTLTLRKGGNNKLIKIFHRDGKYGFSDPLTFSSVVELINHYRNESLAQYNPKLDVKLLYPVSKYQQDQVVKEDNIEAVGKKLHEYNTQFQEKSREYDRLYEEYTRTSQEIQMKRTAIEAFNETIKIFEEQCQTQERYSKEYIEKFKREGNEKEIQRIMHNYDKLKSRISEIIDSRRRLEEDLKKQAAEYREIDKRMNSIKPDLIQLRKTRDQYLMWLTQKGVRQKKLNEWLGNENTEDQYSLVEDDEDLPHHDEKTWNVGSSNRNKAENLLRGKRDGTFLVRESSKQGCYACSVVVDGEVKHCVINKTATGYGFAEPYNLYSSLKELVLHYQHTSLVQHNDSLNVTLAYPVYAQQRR
T2 sequence (P48736 whole entry): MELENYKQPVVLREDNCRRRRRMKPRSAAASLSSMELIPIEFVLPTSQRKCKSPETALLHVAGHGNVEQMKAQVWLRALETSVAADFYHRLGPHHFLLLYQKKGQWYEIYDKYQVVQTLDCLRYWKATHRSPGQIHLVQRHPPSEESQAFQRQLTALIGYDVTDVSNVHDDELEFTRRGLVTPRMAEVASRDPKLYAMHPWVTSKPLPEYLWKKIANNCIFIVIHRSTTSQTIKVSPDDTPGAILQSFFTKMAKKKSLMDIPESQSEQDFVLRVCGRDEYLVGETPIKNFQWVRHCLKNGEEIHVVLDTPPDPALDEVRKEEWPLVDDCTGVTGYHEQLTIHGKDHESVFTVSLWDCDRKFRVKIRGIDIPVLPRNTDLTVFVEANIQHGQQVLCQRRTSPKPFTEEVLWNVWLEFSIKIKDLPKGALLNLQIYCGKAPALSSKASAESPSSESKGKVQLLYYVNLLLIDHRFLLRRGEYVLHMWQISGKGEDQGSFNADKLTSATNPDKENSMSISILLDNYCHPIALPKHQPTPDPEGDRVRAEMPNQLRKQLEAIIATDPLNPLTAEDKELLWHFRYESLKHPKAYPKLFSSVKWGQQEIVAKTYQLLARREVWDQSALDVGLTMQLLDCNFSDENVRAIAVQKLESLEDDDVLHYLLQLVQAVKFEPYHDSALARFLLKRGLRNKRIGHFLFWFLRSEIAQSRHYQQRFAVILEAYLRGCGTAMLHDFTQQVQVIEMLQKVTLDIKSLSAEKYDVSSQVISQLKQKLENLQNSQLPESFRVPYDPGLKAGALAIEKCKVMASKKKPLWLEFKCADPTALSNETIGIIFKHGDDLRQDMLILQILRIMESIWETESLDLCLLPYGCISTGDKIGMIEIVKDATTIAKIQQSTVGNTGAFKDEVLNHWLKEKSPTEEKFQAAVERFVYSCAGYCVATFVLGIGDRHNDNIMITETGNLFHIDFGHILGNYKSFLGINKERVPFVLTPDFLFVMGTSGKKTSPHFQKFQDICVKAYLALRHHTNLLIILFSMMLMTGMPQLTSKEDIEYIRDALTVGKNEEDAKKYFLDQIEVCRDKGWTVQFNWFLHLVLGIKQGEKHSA
T3 sequence (P42338 whole entry): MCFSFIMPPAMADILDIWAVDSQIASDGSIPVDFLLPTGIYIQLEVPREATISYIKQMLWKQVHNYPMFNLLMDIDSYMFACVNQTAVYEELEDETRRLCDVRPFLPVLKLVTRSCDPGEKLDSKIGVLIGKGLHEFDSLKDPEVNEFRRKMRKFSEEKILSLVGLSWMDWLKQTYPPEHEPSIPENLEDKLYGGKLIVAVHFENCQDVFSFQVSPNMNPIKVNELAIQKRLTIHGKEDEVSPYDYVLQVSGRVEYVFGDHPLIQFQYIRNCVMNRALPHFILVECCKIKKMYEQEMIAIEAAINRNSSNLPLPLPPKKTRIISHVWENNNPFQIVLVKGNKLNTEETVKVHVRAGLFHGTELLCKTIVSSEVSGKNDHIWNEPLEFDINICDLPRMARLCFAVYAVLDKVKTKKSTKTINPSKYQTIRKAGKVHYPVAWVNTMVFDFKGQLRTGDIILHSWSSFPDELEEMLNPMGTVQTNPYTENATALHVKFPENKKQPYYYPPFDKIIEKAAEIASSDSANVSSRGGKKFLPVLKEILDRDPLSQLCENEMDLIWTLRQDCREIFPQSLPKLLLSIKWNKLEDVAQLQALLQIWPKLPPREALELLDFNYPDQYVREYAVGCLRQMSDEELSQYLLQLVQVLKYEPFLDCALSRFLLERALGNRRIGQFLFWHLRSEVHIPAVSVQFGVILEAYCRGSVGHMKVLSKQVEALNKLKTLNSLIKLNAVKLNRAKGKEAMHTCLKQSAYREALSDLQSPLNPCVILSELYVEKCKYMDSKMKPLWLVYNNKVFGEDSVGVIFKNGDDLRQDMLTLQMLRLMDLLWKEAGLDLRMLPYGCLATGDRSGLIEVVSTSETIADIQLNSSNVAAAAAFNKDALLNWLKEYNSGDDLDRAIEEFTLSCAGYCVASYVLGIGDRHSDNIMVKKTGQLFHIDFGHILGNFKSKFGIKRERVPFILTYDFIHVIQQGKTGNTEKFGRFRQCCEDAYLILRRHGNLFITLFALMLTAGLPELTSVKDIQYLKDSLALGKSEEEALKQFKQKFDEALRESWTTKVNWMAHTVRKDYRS
T3 sequence (P27986 whole entry partner): as the sequence (P27986 whole entry partner) above

With `CCNC(=O)Nc1ccc(-c2nc3c(c(N4CCOCC4)n2)CN(C)C3)c(F)c1` [Example 154, 1-ethyl-3-(3-fluoro-4-(6-methyl-4-morpholino-6,7-dihydro-5H-pyrrolo[3,4-d]pyrimidin-2-yl)phenyl)urea], the IC50 at mTOR (setting [1]) was 100 to 1000 nM; at PI3 Kgamma (PI3 Kg) (setting [2]) it was more than 10000 nM; at PI3 Kbeta (PI3 Kb) (setting [3]) it was more than 10000 nM. Moreover, the PI3Ka result on PI3Kalpha (PI3Ka) (Further Kinobeads Data) is listed as “D (D >10 μM)”.

As for `CC(=O)N1Cc2nc(-c3ccc(NC(=O)NC4CC4)cc3F)nc(N3CCOC[C@@H]3C)c2C1` [Example 155, (S)-1-(4-(6-acetyl-4-(3-methylmorpholino)-6,7-dihydro-5H-pyrrolo[3,4-d]pyrimidin-2-yl)-3-fluorophenyl)-3-cyclopropylurea], the IC50 on mTOR (setting [1]) was less than 100 nM; on PI3 Kgamma (PI3 Kg) (setting [2]), more than 10000 nM; on PI3 Kbeta (PI3 Kb) (setting [3]) it was more than 10000 nM. In addition, at PI3Kalpha (PI3Ka) (Further Kinobeads Data), the PI3Ka result is listed as “D (D >10 μM)”.

Regarding `CC(C)N1CCc2c(nc(-c3ccc(NC(=O)NC4CC4)cc3)nc2N2CCOC[C@@H]2C)C1` [Example 43, (S)-1-cyclopropyl-3-(4-(7-isopropyl-4-(3-methylmorpholino)-5,6,7,8-tetrahydropyrido[3,4-d]pyrimidin-2-yl)phenyl)urea], the IC50 is less than 100 nM at mTOR (setting [4]); less than 100 nM at mTOR (setting [5]); 1000 to 10000 nM at PI3 Kgamma (PI3 Kg) (setting [6]); 1000 to 10000 nM at PI3 Kbeta (PI3 Kb) (setting [7]); 1000 to 10000 nM on PI3Kalpha (PI3Ka) (setting [8]).

As for `CCOC(=O)N1Cc2nc(-c3ccc(NC(=O)NCCO)cc3F)nc(N3CCOCC3)c2C1` [Example 171, ethyl 2-(2-fluoro-4-(3-(2-hydroxyethyl)ureido)phenyl)-4-morpholino-5H-pyrrolo[3,4-d]pyrimidine-6(7H)-carboxylate], the figures for the IC50 on mTOR (setting [1]), on PI3 Kgamma (PI3 Kg) (setting [2]) and at PI3 Kbeta (PI3 Kb) (setting [3]) were less than 100 nM, more than 10000 nM and more than 10000 nM, respectively. Besides, the PI3Ka entry on PI3Kalpha (PI3Ka) (Further Kinobeads Data) was “D (D >10 μM)”.

For `CCNC(=O)Nc1ccc(-c2nc3c(c(N4CCOC[C@@H]4C)n2)CCN(C(=O)C(C)C)C3)cc1` [Example 57, (S)-1-ethyl-3-(4-(7-isobutyryl-4-(3-methylmorpholino)-5,6,7,8-tetrahydropyrido[3,4-d]pyrimidin-2-yl)phenyl)urea], the IC50 is less than 100 nM on mTOR (setting [4]), less than 100 nM at mTOR (setting [5]), more than 10000 nM on PI3 Kgamma (PI3 Kg) (setting [6]) and more than 10000 nM on PI3 Kbeta (PI3 Kb) (setting [7]). In addition, at PI3Kalpha (PI3Ka) (kinobeads assay, Table 6), the “Inhibition values (IC50) PI3Ka” value was “D (D >10 μM)”.

`CCNC(=O)Nc1ccc(-c2nc3c(c(N4CCOCC4)n2)CN(C(=O)OCC)C3)c(F)c1` [Example 151, Ethyl 2-(4-(3-ethylureido)-2-fluorophenyl)-4-morpholino-5H-pyrrolo[3,4-d]pyrimidine-6(7H)-carboxylate]: the IC50 is 100 to 1000 nM on mTOR (setting [1]); 1000 to 10000 nM at PI3 Kgamma (PI3 Kg) (setting [2]); more than 10000 nM on PI3 Kbeta (PI3 Kb) (setting [3]); 1000 to 10000 nM on PI3Kalpha (PI3Ka) (Further Kinobeads Data, read-out: PI3Ka).

As for `CCNC(=O)Nc1ccc(-c2nc3c(c(N4CCOC[C@@H]4C)n2)CCN(CC)C3)cc1` [Example 27, (S)-1-ethyl-3-(4-(7-ethyl-4-(3-methylmorpholino)-5,6,7,8-tetrahydropyrido[3,4-d]pyrimidin-2-yl)phenyl)urea], the IC50 on mTOR (setting [4]) was less than 100 nM; at mTOR (setting [5]), less than 100 nM; on PI3 Kgamma (PI3 Kg) (setting [6]), 1000 to 10000 nM; on PI3 Kbeta (PI3 Kb) (setting [7]), 1000 to 10000 nM; at PI3Kalpha (PI3Ka) (setting [8]), 1000 to 10000 nM.

As for `CCNC(=O)Nc1ccc(-c2nc3c(c(N4CCOC[C@@H]4C)n2)CN(Cc2ccc(F)cc2)C3)cc1` [Example 29, (S)-1-ethyl-3-(4-(6-(4-fluorobenzyl)-4-(3-methylmorpholino)-6,7-dihydro-5H-pyrrolo[3,4-d]pyrimidin-2-yl)phenyl)urea], the IC50 at mTOR (setting [4]) is 100 to 1000 nM; at mTOR (setting [5]) it was 100 to 1000 nM; on PI3 Kgamma (PI3 Kg) (setting [6]) it was more than 10000 nM; at PI3 Kbeta (PI3 Kb) (setting [7]), more than 10000 nM. Also, at PI3Kalpha (PI3Ka) (kinobeads assay, Table 6), the “Inhibition values (IC50) PI3Ka” value is recorded as “D (D >10 μM)”.

In the case of `CCNC(=O)Nc1ccc(-c2nc3c(c(N4CCOC[C@@H]4C)n2)CN(C(=O)c2ccc(F)cc2)C3)cc1` [Example 19, (S)-1-ethyl-3-(4-(6-(4-fluorobenzoyl)-4-(3-methylmorpholino)-6,7-dihydro-5H-pyrrolo[3,4-d]pyrimidin-2-yl)phenyl)urea], the IC50 on mTOR (setting [4]) is 100 to 1000 nM; on mTOR (setting [5]), 100 to 1000 nM; on PI3 Kgamma (PI3 Kg) (setting [6]), more than 10000 nM; at PI3 Kbeta (PI3 Kb) (setting [7]) it was more than 10000 nM. For the same molecule, the “Inhibition values (IC50) PI3Ka” value on PI3Kalpha (PI3Ka) (kinobeads assay, Table 6) is reported as “D (D >10 μM)”.

In the case of `C[C@H]1COCCN1c1nc(-c2ccc(NC(=O)NC3CC3)cc2F)nc2c1CCN(C(=O)N(C)C)C2` [Example 165, (S)-2-(4-(3-cyclopropylureido)-2-fluorophenyl)-N,N-dimethyl-4-(3-methylmorpholino)-5,6-dihydropyrido[3,4-d]pyrimidine-7(8H)-carboxamide], the IC50 is less than 100 nM at mTOR (setting [1]), more than 10000 nM on PI3 Kgamma (PI3 Kg) (setting [2]) and more than 10000 nM at PI3 Kbeta (PI3 Kb) (setting [3]). In addition, on PI3Kalpha (PI3Ka) (Further Kinobeads Data), the PI3Ka result was “D (D >10 μM)”.

`CCNC(=O)Nc1ccc(-c2nc3c(c(N4CCOC[C@@H]4C)n2)CCNC3)c(F)c1` [Example 164, (S)-1-ethyl-3-(3-fluoro-4-(4-(3-methylmorpholino)-5,6,7,8-tetrahydropyrido[3,4-d]pyrimidin-2-yl)phenyl)urea]: the IC50 was less than 100 nM at mTOR (setting [1]), more than 10000 nM at PI3 Kgamma (PI3 Kg) (setting [2]) and more than 10000 nM at PI3 Kbeta (PI3 Kb) (setting [3]). Moreover, the PI3Ka result at PI3Kalpha (PI3Ka) (Further Kinobeads Data) was “D (D >10 μM)”.

Turning to `CCOC(=O)N1Cc2nc(-c3ccc(NC(=O)NC4CC4)cc3)nc(N3CCOC[C@@H]3C)c2C1` [Example 34, (S)-ethyl 2-(4-(3-cyclopropylureido)phenyl)-4-(3-methylmorpholino)-5H-pyrrolo[3,4-d]pyrimidine-6(7H)-carboxylate], the IC50 on mTOR (setting [4]) was less than 100 nM; on mTOR (setting [5]) it was less than 100 nM; at PI3 Kgamma (PI3 Kg) (setting [6]), more than 10000 nM; at PI3 Kbeta (PI3 Kb) (setting [7]), more than 10000 nM. In addition, the “Inhibition values (IC50) PI3Ka” value at PI3Kalpha (PI3Ka) (kinobeads assay, Table 6) is recorded as “D (D >10 μM)”.

Turning to `CCOC(=O)N1Cc2nc(-c3ccc(NC(=O)NCCF)cc3F)nc(N3CCOCC3)c2C1` [Example 170, ethyl 2-(2-fluoro-4-(3-(2-fluoroethyl)ureido)phenyl)-4-morpholino-5H-pyrrolo[3,4-d]pyrimidine-6(7H)-carboxylate], the IC50 was less than 100 nM on mTOR (setting [1]), more than 10000 nM on PI3 Kgamma (PI3 Kg) (setting [2]) and more than 10000 nM at PI3 Kbeta (PI3 Kb) (setting [3]). Moreover, the PI3Ka entry on PI3Kalpha (PI3Ka) (Further Kinobeads Data) was “D (D >10 μM)”.

Consider `C[C@H]1COCCN1c1nc(-c2ccc(NC(=O)NC3CC3)cc2)nc2c1CN(C(=O)C(C)(C)C)C2` [Example 45, (S)-1-cyclopropyl-3-(4-(4-(3-methylmorpholino)-6-pivaloyl-6,7-dihydro-5H-pyrrolo[3,4-d]pyrimidin-2-yl)phenyl)urea], for which the IC50 on mTOR (setting [4]) is 100 to 1000 nM; at mTOR (setting [5]) it was 100 to 1000 nM; at PI3 Kgamma (PI3 Kg) (setting [6]) it was more than 10000 nM; on PI3 Kbeta (PI3 Kb) (setting [7]), more than 10000 nM. Besides, the “Inhibition values (IC50) PI3Ka” value on PI3Kalpha (PI3Ka) (kinobeads assay, Table 6) was “D (D >10 μM)”.
